Patent US11046686B2, “Thiadiazole IRAK4 compounds” (Gilead Sciences, Inc., priority 2018, dated 2021)
Read-outs that look alike come from different tables or passages of the source.

Tested on: TNFα
Assay: IRAK4 Monocyte TNFα Cell Based Assay
Design: species or system human
Details: human monocytes, second part of Table 2, compounds 33-343, unit inferred, read-out: EC50 MONO TNF HTRF
Summary of the method: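 Human monocytes (5,000/well) pretreated with compound 1 h at 37 °C (0.1% DMSO final), then stimulated with 50 pg/ml LPS for 4 h. Secreted TNFα measured by TR-FRET two-antibody detection after overnight incubation at room temperature; % control relative to unstimulated and LPS-stimulated wells.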

| Compound | EC50 [nM] | EC50 (Homo sapiens, Monocyte) [nM] |
| --- | --- | --- |
| COC(=O)NC[C@H]1C[C@H](Nc2cc(-c3ccc4cc(C#N)cnn34)ncc2-c2nnc([C@H]3CC[C@H](NC(=O)N4CCOCC4)CC3)s2)C1 [Example 143] | 3.1 | – |
| CC(=O)N[C@@H]1[C@@H]2CC[C@H]1CN(c1nnc(-c3cnc(-c4ccc5cc(C#N)cnn45)cc3NC3(C)COC3)s1)C2 [Example 144, N-((1R,5S,8s)-3-(5-(6-(3-cyanopyrrolo[1,2-b]pyridazin-7-yl)-4-((3-methyloxetan-3-yl)amino)pyridin-3-yl)-1,3,4-thiadiazo1-2-yl)-3-azabicyclo[3.2.1]octan-8-yl)acetamide] | 2.3 | – |
| CC(C)Nc1cc(-c2ccc3cc(C#N)cnn23)ncc1-c1nnc(N2C[C@H]3CC[C@@H](C2)[C@H]3O)s1 [Example 146, 7-(5-(5-((1R,5S,8r)-8-hydroxy-3-azabicyclo[3.2.1]octan-3-yl)-1,3,4-thiadiazol-2-yl)-4-(isopropylamino)pyridin-2-yl)pyrrolo[1,2-b]pyridazine-3-carbonitrile] | 5.2 | – |
| C[C@H](C#N)Nc1cc(-c2ccc3cc(C#N)cnn23)ncc1-c1nnc(N2C[C@H]3CC[C@@H](C2)[C@@H]3NC(=O)C2CC2)s1 [Example 148, N-((1R,5S,8S)-3-(5-(4-(((R)-1-cyanoethyl)amino)-6-(3-cyanopyrrolo[1,2-b]pyridazin-7-yl)pyridin-3-yl)-1,3,4-thiadiazol-2-yl)-3-azabicyclo[3.2.1]octan-8-yl)cyclopropanecarboxamide] | – | 1.4 |
| CC1(Nc2cc(-c3ccc4cc(C#N)cnn34)ncc2-c2nnc(N3C[C@H]4CC[C@@H](C3)[C@H]4O)s2)COC1 [Example 149, 7-(5-(5-((1R,5S,8r)-8-hydroxy-3-azabicyclo[3.2.1]octan-3-yl)-1,3,4-thiadiazol-2-yl)-4-((3-methyloxetan-3-yl)amino)pyridin-2-yl)pyrrolo[1,2-b]pyridazine-3-carbonitrile] | 4.9 | – |
| CC(C)Nc1cc(-c2ccc3cc(C#N)cnn23)ncc1-c1nnc(N2C[C@H]3CC[C@@H](C2)[C@@H]3NC(=O)C2CC2)s1 [Example 150, N-((1R,5S,8s)-3-(5-(6-(3-cyanopyrrolo[1,2-b]pyridazin-7-yl)-4-(isopropylamino)pyridin-3-yl)-1,3,4-thiadiazol-2-yl)-3-azabicyclo[3.2.1]octan-8-yl)cyclopropanecarboxamide] | 5.2 | – |
| CC(C)Nc1cc(-c2ccc3cc(C#N)cnn23)ncc1-c1nnc(N2C[C@H]3CC[C@@H](C2)[C@@]3(C)O)s1 [Example 153, 7-(5-(5-((1R,55,8r)-8-hydroxy-8-methyl-3-azabicyclo[3.2.1]octan-3-yl)-1,3,4-thiadiazol-2-yl)-4-(isopropylamino)pyridin-2-yl)pyrrolo[1,2-b]pyridazine-3-carbonitrile] | 7.2 | – |
| CC(C)Nc1cc(-c2ccc3cc(C#N)cnn23)ncc1-c1nnc(N2C[C@H]3CC[C@@H](C2)[C@@H]3O)s1 [Example 154, 7-(5-(5-((1R,5S,8s)-8-hydroxy-3-azabicyclo[3.2.1]octan-3-yl)-1,3,4-thiadiazol-2-yl)-4-(isopropylamino)pyridin-2-yl)pyrrolo[1,2-b]pyridazine-3-carbonitrile] | 13.3 | – |
| CC(=O)N[C@]1(C)[C@@H]2CC[C@H]1CN(c1nnc(-c3cnc(-c4ccc5cc(C#N)cnn45)cc3NC(C)C)s1)C2 [Example 155] | 7.4 | – |
| N#Cc1cnn2c(-c3cc(NC4CCOCC4)c(-c4nnc([C@H]5CC[C@H](NC(=O)C6CC6)CC5)s4)cn3)ccc2c1 [Example 156, N-((1r,4r)-4-(5-(6-(3-cyanopyrrolo[1,2-b]pyridazin-7-yl)-4-((tetrahydro-2H-pyran-4-yl)amino)pyridin-3-yl)-1,3,4-thiadiazol-2-yl)cyclohexyl)cyclopropanecarboxamide] | 10.9 | – |
| CC(=O)N[C@]1(C)[C@@H]2CC[C@H]1CN(c1nnc(-c3cnc(-c4ccc5cc(C#N)cnn45)cc3N[C@H](C)C#N)s1)C2 [Example 157, N-((1R,5S,8S)-3-(5-(4-((R)-1-cyanoethypamino)-6-(3-cyanopyrrolo[1,2-b]pyridazin-7-yl)pyridin-3-yl)-1,3,4-thiadiazol-2-yl)-8-methyl-3-azabicyclo[3.2.1]octan-8-yl)acetamide] | 1.8 | – |
| CC1(Nc2cc(-c3ccc4cc(C#N)cnn34)ncc2-c2nnc([C@H]3CC[C@H](NC(=O)C4CC4)CC3)s2)COC1 [Example 158, N-((1r,4r)-4-(5-(6-(3-cyanopyrrolo[1,2-b]pyridazin-7-yl)-4-((3-methyloxetan-3-yl)amino)pyridin-3-yl)-1,3,4-thiadiazol-2-yl)cyclohexyl)cyclopropanecarboxamide] | 19.8 | – |
| CC(C)Nc1cc(-c2ccc3cc(C#N)cnn23)ncc1-c1nnc(N2CC3CCC(C2)C3(O)C(F)(F)F)s1 (centres unmarked) [Example 159, 7-(5-(5-(8-hydroxy-8-(trifluoromethyl)-3-azabicyclo[3.2.1]octan-3-yl)-1,3,4-thiadiazol-2-yl)-4-(isopropylamino)pyridin-2-yl)pylrolo[1,2-b]pyridazine-3-carbonitrile] | 25.7 | – |
| C[C@H](C#N)Nc1cc(-c2ccc3cc(C#N)cnn23)ncc1-c1nnc([C@H]2CC[C@H](NC(=O)C3CC3)CC2)s1 [Example 160, N-((1R,4r)-4-(5-(4-(((R)-1-cyanoethyl)amino)-6-(3-cyanopyrrolo[1,2-b]pyridazin-7-yl)pyridin-3-yl)-1,3,4-thiadiazol-2-yl)cyclohexyl)cyclopropanecarboxamide] | 2.8 | – |
| CC(C)Nc1cc(-c2ccc3cc(C#N)cnn23)ncc1-c1nnc(N2CC3(CCNC3=O)C2)s1 [Example 164] | 17.5 | – |
| CC(=O)N[C@H]1[C@@H]2CCC[C@H]1CN(c1nnc(-c3cnc(-c4ccc5cc(C#N)cnn45)cc3NC(C)C)s1)C2 [Example 165, N-((1R,5S,9r)-3-(5-(6-(3-cyanopyrrolo[1,2-b]pyridazin-7-yl)-4-(isopropylamino)pyridin-3-yl)-1,3,4-thiadiazol-2-yl)-3-azabicyclo[3.3.1]nonan-9-yl)acetamide] | 39.1 | – |
| CC(=O)N[C@@H]1[C@@H]2CCC[C@H]1CN(c1nnc(-c3cnc(-c4ccc5cc(C#N)cnn45)cc3NC(C)C)s1)C2 [Example 166, N-((1R,5S,9s)-3-(5-(6-(3-cyanopyrrolo[1,2-b]pyridazin-7-yl)-4-(isopropylamino)pyridin-3-yl)-1,3,4-thiadiazol-2-yl)-3-azabicyclo[3.3.1]nonan-9-yl)acetamide] | 2.3 | – |
| CC(=O)N[C@@H]1[C@@H]2CC[C@H]1CN(c1nnc(-c3cnc(-c4ccc5cc(C#N)cnn45)cc3NC3CCOCC3)s1)C2 [Example 171, N-((1R,5S,8s)-3-(5-(6-(3-cyanopyrrolo[1,2-b]pyridazin-7-yl)-4-((tetrahydro-2H-pyran-4-yl)amino)pyridin-3-yl)-1,3,4-thiadiazol-2-yl)-3-azabicyclo[3.2.1]octan-8-yl)acetamide] | 2.1 | – |
| CC(C)Nc1cc(-c2ccc3cc(C#N)cnn23)ncc1-c1nnc(N2CCC(O)(C(F)(F)F)CC2)s1 [Example 172, 7-(5-(5-(4-hydroxy-4-(trifluoromethyl)piperidin-l-yl)-1,3,4-thiadiazol-2-yl)-4-(isopropylamino)pyridin-2-yl)pyrrolo[1,2-b]pyridazine-3-carbonitrile] | 34.4 | – |
| CC(=O)N[C@@H]1[C@@H]2C[C@H]1CN(c1nnc(-c3cnc(-c4ccc5cc(C#N)cnn45)cc3NC(C)C)s1)C2 [Example 173, N-((1R,5S,6s)-3-(5-(6-(3-cyanopyrrolo[1,2-b]pyridazin-7-yl)-4-(isopropylamino)pyridin-3-yl)-1,3,4-thiadiazol-2-yl)-3-azabicyclo[3.1.1]heptan-6-yl)acetamide] | 11.6 | – |
| CC(=O)N[C@@H]1[C@@H]2C[C@H]1CN(c1nnc(-c3cnc(-c4ccc5cc(C#N)cnn45)cc3N[C@H](C)C#N)s1)C2 [Example 174, N-((1R,5S,6S)-3-(5-(4-(((R)-1-cyanoethyl)amino)-6-(3-cyanopyrrolo[1,2-b]pyridazin-7-yl)pyridin-3-yl)-1,3,4-thiadiazol-2-yl)-3-azabicyclo[3.1.1]heptan-6-yl)acetamide] | 3.5 | – |
| CC(=O)N[C@@H]1[C@@H]2C[C@H]1CN(c1nnc(-c3cnc(-c4ccc5cc(C#N)cnn45)cc3NC3(C)COC3)s1)C2 [Example 175, N-((1R,5S,6s)-3-(5-(6-(3-cyanopyrrolo[1,2-b]pyridazin-7-yl)-4-((3-methyloxetan-3-yl)amino)pyridin-3-yl)-1,3,4-thiadiazol-2-yl)-3-azabicyclo[3.1.1]heptan-6-yl)acetamide] | 9 | – |
| CNc1cc(-c2ccc3cc(C#N)cnn23)ncc1-c1nnc(N2C[C@H]3C[C@@H](C2)[C@@H]3NC(C)=O)s1 [Example 176, N-((1R,5S,6s)-3-(5-(6-(3-cyanopyrrolo[1,2-b]pyridazin-7-yl)-4-(methylamino)pyridin-3-yl)-1,3,4-thiadiazol-2-yl)-3-azabicyclo[3.1.1]heptan-6-yl)acetamide] | 23.5 | – |
| CC(=O)N[C@@H]1[C@@H]2C[C@H]1CN(c1nnc(-c3cnc(-c4ccc5cc(C#N)cnn45)cc3NC3COC3)s1)C2 [Example 179, N-((1R,5S,6s)-3-(5-(6-(3-cyanopyrrolo[1,2-b]pyridazin-7-yl)-4-(oxetan-3-ylamino)pyridin-3-yl)-1,3,4-thiadiazol-2-yl)-3-azabicyclo[3.1.1]heptan-6-yl)acetamide] | 6.4 | – |
| C[C@H](C#N)Nc1cc(-c2ccc3cc(C#N)cnn23)ncc1-c1nnc(N2CCC(C)(O)CC2)s1 [Example 180] | 6.8 | – |
| CC1(O)CCN(c2nnc(-c3cnc(-c4ccc5cc(C#N)cnn45)cc3NC3(C)COC3)s2)CC1 [Example 181, 7-(5-(5-(4-hydroxy-4-methylpiperidin-l-yl)-1,3,4-thiadiazol-2-yl)-4-((3-methyloxetan-3-yl)amino)pyridin-2-yl)pyrrolo[1,2-b]pyridazine-3-carbonitrile] | 18.4 | – |
